According to the NIST ThermoML archive (doi:10.1016/j.jct.2013.09.041):

Experiments:
[1] = 323.15 K, 101.33 kPa, Liquid; for speed of sound: Sing-around technique in a fixed-path interferometer; for mass density: Vibrating tube method
[2] = osmotic coefficient (dimensionless); mn = molality of the nth substance listed, in mol/kg; details: 323.15 K, 101 kPa, Liquid, A Knauer K-7000 vapor pressure osmometer
[3] = mn = molality of the nth substance listed, in mol/kg; details: 323.15 K, 101 kPa, Liquid, Vibrating tube method

CCCCCCn1cc[n+](C)c1.O=S(=O)([O-])C(F)(F)F [1-hexyl-3-methylimidazolium trifluoromethanesulfonate]
[1]
Details | mass density [kg/m3] | speed of sound [m/s]
– | 1217.24 | 1327.2

CCCCO [butan-1-ol]
[1]
Details | mass density [kg/m3] | speed of sound [m/s]
– | 786.32 | 1157.3

CC(C)O [propan-2-ol]
[1]
Details | mass density [kg/m3] | speed of sound [m/s]
– | 758.63 | 1050.9

CCCCCCn1cc[n+](C)c1.O=S(=O)([O-])C(F)(F)F [1-hexyl-3-methylimidazolium trifluoromethanesulfonate] + CC(C)O
Details | mass density [kg/m3] | osmotic coefficient
[2], m1 = 0.026 | – | 0.991
[2], m1 = 0.043 | – | 0.954
[2], m1 = 0.1 | – | 0.886
[2], m1 = 0.2 | – | 0.758
[2], m1 = 0.305 | – | 0.659
[2], m1 = 0.412 | – | 0.616
[2], m1 = 0.526 | – | 0.585
[2], m1 = 0.819 | – | 0.538
[2], m1 = 1.221 | – | 0.476
[2], m1 = 1.62 | – | 0.444
[2], m1 = 2.033 | – | 0.42
[2], m1 = 2.449 | – | 0.387
[2], m1 = 2.822 | – | 0.378
[2], m1 = 3.344 | – | 0.364
[2], m1 = 3.646 | – | 0.359
[3], m1 = 0.051 | 763.8 | –
[3], m1 = 0.102 | 768.55 | –
[3], m1 = 0.152 | 773.15 | –
[3], m1 = 0.204 | 777.8 | –
[3], m1 = 0.252 | 782.08 | –
[3], m1 = 0.301 | 786.21 | –
[3], m1 = 0.355 | 790.72 | –
[3], m1 = 0.404 | 794.75 | –
[3], m1 = 0.455 | 798.81 | –
[3], m1 = 0.504 | 802.65 | –
[3], m1 = 0.606 | 810.57 | –
[3], m1 = 0.709 | 818.13 | –
[3], m1 = 0.802 | 824.81 | –
[3], m1 = 0.908 | 831.9 | –
[3], m1 = 1.012 | 838.62 | –

CCCCCO [pentan-1-ol]
[1]
Details | mass density [kg/m3] | speed of sound [m/s]
– | 792.14 | 1192.9

CCCCCCn1cc[n+](C)c1.O=S(=O)([O-])C(F)(F)F [1-hexyl-3-methylimidazolium trifluoromethanesulfonate] + CCCCO
Details | mass density [kg/m3] | osmotic coefficient
[2], m1 = 0.028 | – | 0.828
[2], m1 = 0.045 | – | 0.721
[2], m1 = 0.114 | – | 0.599
[2], m1 = 0.198 | – | 0.543
[2], m1 = 0.302 | – | 0.482
[2], m1 = 0.427 | – | 0.453
[2], m1 = 0.526 | – | 0.434
[2], m1 = 0.81 | – | 0.399
[2], m1 = 1.224 | – | 0.356
[2], m1 = 1.64 | – | 0.339
[2], m1 = 2.045 | – | 0.329
[2], m1 = 2.417 | – | 0.313
[2], m1 = 2.827 | – | 0.298
[2], m1 = 3.312 | – | 0.282
[3], m1 = 0.052 | 791.18 | –
[3], m1 = 0.103 | 795.76 | –
[3], m1 = 0.152 | 799.99 | –
[3], m1 = 0.202 | 804.23 | –
[3], m1 = 0.254 | 808.45 | –
[3], m1 = 0.303 | 812.46 | –
[3], m1 = 0.353 | 816.43 | –
[3], m1 = 0.405 | 820.46 | –
[3], m1 = 0.448 | 823.73 | –
[3], m1 = 0.504 | 827.88 | –
[3], m1 = 0.598 | 834.75 | –
[3], m1 = 0.701 | 841.92 | –
[3], m1 = 0.792 | 848.08 | –
[3], m1 = 0.906 | 855.49 | –
[3], m1 = 1.01 | 861.88 | –

CCCCCCn1cc[n+](C)c1.O=S(=O)([O-])C(F)(F)F [1-hexyl-3-methylimidazolium trifluoromethanesulfonate] + CCCCCO
Details | mass density [kg/m3] | osmotic coefficient
[2], m1 = 0.053 | – | 0.784
[2], m1 = 0.084 | – | 0.599
[2], m1 = 0.108 | – | 0.51
[2], m1 = 0.194 | – | 0.44
[2], m1 = 0.313 | – | 0.392
[2], m1 = 0.415 | – | 0.345
[2], m1 = 0.512 | – | 0.331
[2], m1 = 0.829 | – | 0.299
[2], m1 = 1.216 | – | 0.293
[2], m1 = 1.64 | – | 0.276
[2], m1 = 2.047 | – | 0.27
[2], m1 = 2.461 | – | 0.255
[2], m1 = 2.845 | – | 0.244
[2], m1 = 3.322 | – | 0.226
[3], m1 = 0.05 | 796.7 | –
[3], m1 = 0.1 | 801.05 | –
[3], m1 = 0.151 | 805.37 | –
[3], m1 = 0.202 | 809.6 | –
[3], m1 = 0.254 | 813.84 | –
[3], m1 = 0.3 | 817.52 | –
[3], m1 = 0.401 | 825.41 | –
[3], m1 = 0.498 | 832.62 | –
[3], m1 = 0.61 | 840.59 | –
[3], m1 = 0.705 | 847.05 | –
[3], m1 = 0.803 | 853.55 | –
[3], m1 = 0.849 | 856.48 | –
[3], m1 = 1 | 865.7 | –

CCCO [propan-1-ol]
[1]
Details | mass density [kg/m3] | speed of sound [m/s]
– | 779.09 | 1121.8

CCCCCCn1cc[n+](C)c1.O=S(=O)([O-])C(F)(F)F [1-hexyl-3-methylimidazolium trifluoromethanesulfonate] + CCCO
Details | mass density, [3] [kg/m3] | osmotic coefficient, [2]
m1 = 0.025 | – | 0.964
m1 = 0.051 | 783.95 | 0.866
m1 = 0.087 | – | 0.796
m1 = 0.102 | 788.64 | –
m1 = 0.153 | 793.14 | –
m1 = 0.214 | – | 0.685
m1 = 0.234 | 800.17 | –
m1 = 0.296 | 805.3 | –
m1 = 0.306 | 806.08 | –
m1 = 0.308 | – | 0.645
m1 = 0.355 | 810.02 | –
m1 = 0.401 | 813.72 | –
m1 = 0.411 | – | 0.585
m1 = 0.448 | 817.38 | –
m1 = 0.518 | 822.69 | 0.547
m1 = 0.62 | 830.19 | –
m1 = 0.707 | 836.34 | –
m1 = 0.804 | 843.03 | –
m1 = 0.815 | – | 0.494
m1 = 0.905 | 849.7 | –
m1 = 1.012 | 856.34 | –
m1 = 1.223 | – | 0.462
m1 = 1.614 | – | 0.427
m1 = 2.029 | – | 0.408
m1 = 2.416 | – | 0.392
m1 = 2.82 | – | 0.373
m1 = 3.493 | – | 0.361

CCC(C)O (stereo unspecified) [butan-2-ol]
[1]
Details | mass density [kg/m3] | speed of sound [m/s]
– | 780.4 | 1120.2

CCCCCCn1cc[n+](C)c1.O=S(=O)([O-])C(F)(F)F [1-hexyl-3-methylimidazolium trifluoromethanesulfonate] + CCC(C)O
Details | mass density [kg/m3] | osmotic coefficient
[2], m1 = 0.056 | – | 0.823
[2], m1 = 0.079 | – | 0.797
[2], m1 = 0.107 | – | 0.76
[2], m1 = 0.215 | – | 0.626
[2], m1 = 0.296 | – | 0.576
[2], m1 = 0.401 | – | 0.513
[2], m1 = 0.513 | – | 0.487
[2], m1 = 0.809 | – | 0.426
[2], m1 = 1.206 | – | 0.393
[2], m1 = 1.608 | – | 0.38
[2], m1 = 2.032 | – | 0.362
[2], m1 = 2.426 | – | 0.351
[2], m1 = 2.776 | – | 0.342
[2], m1 = 3.311 | – | 0.337
[2], m1 = 3.703 | – | 0.332
[3], m1 = 0.052 | 785.45 | –
[3], m1 = 0.102 | 789.95 | –
[3], m1 = 0.153 | 794.44 | –
[3], m1 = 0.203 | 798.75 | –
[3], m1 = 0.302 | 806.95 | –
[3], m1 = 0.352 | 810.99 | –
[3], m1 = 0.403 | 815.07 | –
[3], m1 = 0.45 | 818.65 | –
[3], m1 = 0.5029 | 822.68 | –
[3], m1 = 0.597 | 829.6 | –
[3], m1 = 0.7 | 836.92 | –
[3], m1 = 0.797 | 843.69 | –
[3], m1 = 0.907 | 850.73 | –
[3], m1 = 1.002 | 856.64 | –
